Data on one compound can be found in patent US10201552B2, “Method of increasing the bioavailability of an HIV drug” (HOWARD UNIVERSITY, priority 2013, dated 2019).

Data set [1] relates to Unactivated Human T-Cells. The experiment in a line: Uptake of radio labeled Tenofovir in human T-cells in presence and absence of ABC efflux pump inhibitors. In kind it is cell-based. Particulars: with specific MRP, BCRP and Pgp inhibitors vs without. Here is the method: ABC efflux pump inhibitors. Briefly, human T-cells in the culture media (1 million/mL) were transferred to 15 mL centrifuge tubes. Radio labeled Tenofovir was added to the control tube and radio labeled Tenofovir along with defined concentrations of efflux pump inhibitors were added to the treatment tubes. The tubes were incubated for 15 minutes under culture conditions (37° C., 5% CO2/95% relative humidity). Following incubation, the tubes were centrifuged at 2000 rpm for 15 min and the supernatant is discarded. Ice cold stop solution (210 mM KCl, 2 mM HEPES [pH 7.4]) was added to stop the reaction. The cells were resuspended in stop solution to ensure washing and centrifuged at 2000 rpm for 15 min. The treatment with stop solution, washing and centrifugation is repeated to ensure through washing. 1 mL lysis solution (0.3 M NaOH, 0.1% Triton X-100) was added to the cell pellet and samples and incubated overnight to ensure complete cell lysis. Intracellular concentrations were analyzed by Beckman LS 6500 automated Scintillation Counter.

The conditions of data set [2]: administered orally as disoproxil ester prodrug; cited from earlier work.

As for `C[C@H](Cn1cnc2c(N)ncnc21)OCP(=O)(O)O` [Tenofovir], the “intracellular accumulation of Tenofovir” value in data set [1] was “significant increase”. In data set [2], the bioavailability (as a rule, dose-corrected exposure relative to a reference, in per cent) is ≥ 20%.
